Test results as given in patent US20250051263A1, “NOVEL IONIZABLE LIPIDS AND LIPID NANOPARTICLES AND METHODS OF USING THE SAME” (Sail Biomedicines, Inc., priority 2021, published 2025).

What was measured:
Balb/c mice [1] = experiment: In-vivo bioluminescent imaging after IV injection of Fluc mRNA LNP; conditions: IV; for Bioluminescence (IV) Liver / Bioluminescence (IV) Lung / Bioluminescence (IV) Spleen / Bioluminescence (IV) Whole Body / Spleen: Liver Ratio: Example 5 LNP (DOPE 35:16:46.5:2.5), 5 μg FLUC + 5 μg EPO; for Bioluminescence (IV) Liver / Bioluminescence (IV) Lung / Bioluminescence (IV) Spleen / Bioluminescence (IV) Whole Body / Bioluminescence Liver / Bioluminescence Lung / Bioluminescence Spleen: 4-6 hours post-dose; for Spleen: Liver Ratio: ratio of bioluminescence; for Bioluminescence Liver / Bioluminescence Lung / Bioluminescence Spleen: 5 ug Fluc+5 ug EPO mRNA
Description: (§1) 8-9 week old female Balb/c mice are utilized for bioluminescence-based ionizable lipid screening efforts. Mice are obtained from Jackson Laboratories (JAX Stock: 000651) and allowed to acclimate for one week prior to manipulations. Animals are placed under a heat lamp for a few minutes before introducing them to a restraining chamber. The tail is wiped with alcohol pads (Fisher Scientific) and 100 μL of a lipid nanoparticle composition descrbed above containing 10 ug total mRNA (5 ug Fluc+5 ug EPO) is injected intravenously using a 29 G insulin syringe (Covidien). Any resulting bleeding is stemmed using a sterile gauze pad (Fisher Scientific) and animals are placed back into their home cage. 4-6 hours post-dose, animals are injected with 200 μL of 15 mg/mL D-Luciferin (GoldBio) and placed in an isoflurane induction chamber set to deliver 2.5% isoflurane delivered at an oxygen flow rate of 1-2 liters per min. After 5 minutes of isoflurane exposure, mice are placed in set nose cones inside the IVIS Lumina LT imager (PerkinElmer). LivingImage software is utilized for imaging. Whole body bio-luminescence is captured at auto-exposure after which animals are removed from the IVIS and placed into a CO2 chamber for euthanasia. Cardiac puncture is performed on each animal after placing it in dorsal recumbency, and blood collection is performed using a 25 G insulin syringe (BD). Blood is collected in Lithium-Heparin coated tubes (Fisher Scientific) and immediately placed on ice. Once all blood samples are collected, tubes are spun at 2000 G for 10 minutes using a tabletop centrifuge and plasma is aliquoted into individual Eppendorf tubes (Fisher Scientific) and stored at −80 C for subsequent EPO quantification. EPO levels in plasma are determined using EPO MSD kit (Meso Scale Diagnostics).
(§2) 8-9 week old female Balb/c mice were utilized for bioluminescence-based ionizable lipid screening efforts. Mice were obtained from Jackson Laboratories (JAX Stock: 000651) and allowed to acclimate for one week prior to manipulations. Animals were placed under a heat lamp for a few minutes before introducing them to a restraining chamber. The tail was wiped with alcohol pads (Fisher Scientific) and, for each LNP composition descrbed above, 100 μL of a lipid nanoparticle composition descrbed above containing 10 μg total mRNA (5 μg Fluc+5 μg EPO, 5 μg Fluc+5 μg Cre, or 5 μg EGFP) was injected intravenously using a 29 G insulin syringe (Covidien).
(§3) 4-6 hours post-dose, animals were injected with 200 μL of 15 mg/mL D-Luciferin (GoldBio), and placed in set nose cones inside the IVIS Lumina LT imager (PerkinElmer). LivingImage software was utilized for imaging. Whole body bio-luminescence was captured at auto-exposure after which animals are removed from the IVIS and placed into a CO2 chamber for euthanasia. Cardiac puncture was performed on each animal after placing it in dorsal recumbency, and blood collection was performed using a 25 G insulin syringe (BD). Once all blood samples were collected, tubes are spun at 2000 G for 10 minutes using a tabletop centrifuge and plasma was aliquoted into individual Eppendorf tubes (Fisher Scientific) and stored at −80° C. for subsequent EPO quantification. EPO levels in plasma were determined using EPO MSD kit (Meso Scale Diagnostics).

[2] = mRNA encapsulation efficiency, Quant-iT RiboGreen RNA Assay; type: physicochemical; conditions: Example 5 LNP lipid:DOPE:Plant Cholesterol:DMPE-PEG2k 35:16:46.5:2.5, FLUC/EPO 1:1 mRNA, N:P 6:1
Description: (§4) All other compositions (i.e., compositions of MC3 (a commercially available ionizable lipid having a chemical name of (6Z,9Z,28Z,31Z)-heptatriacont-6,9,28,31-tetraene-19-yl 4-(dimethylamino)butanoate, and compositions of novel ionizable lipids 7669, 7671, 7668, 767, 7650) are composed of ionizable lipid:structural lipid:sterol:PEG-lipid (SDA lipid #:DSPC:cholesterol:14:0 PEG2000 PE) at a molar ratio of […], respectively. Lipids are solubilized in ethanol. Compositions are then handled as above, except the formulations are maintained at ionizable lipid to mRNA N:P ratio of 6:1. The lipid mix and mRNA solution are mixed at a 1:3 ratio by volume, respectively, on a NanoAssemblr Ignite (Precision Nanosystems) at a total flow rate of 9 mL/min. Resulting compositions are then loaded into Slide-A-Lyzer G2 dialysis cassettes (10 k MWCO) and dialyzed in 200 times sample volume of 1×PBS for 4 hrs at room temp with gentle stirring. The PBS is refreshed, and the compositions are further dialyzed for at least 14 hrs at 4° C. with gentle stirring. The dialyzed compositions are then collected and concentrated by centrifugation at 2000×g using Amicon Ultra centrifugation filters (100 k MWCO). Concentrated particles are characterized for size, polydispersity, and particle concentration using Zetasizer Ultra (Malvern Panalytical) and for mRNA encapsulation efficiency using Quant-iT RiboGreen RNA Assay Kit (ThermoFisher Scientific).
(§5) The lipid mix and mRNA solution were mixed at a 1:3 ratio by volume, respectively, on the NanoAssemblr Ignite (Precision Nanosystems) at a total flow rate of 9 mL/min. Resulting formulations were then loaded into Slide-A-Lyzer G2 dialysis cassettes (10 k MWCO) and dialyzed in 200 times sample volume of 1×PBS for 2 hrs at room temperature. The PBS was refreshed, and the formulations were further dialyzed for at least 14 hrs at 4° C. with gentle stirring. The dialyzed formulations were then collected and concentrated by centrifugation at 3000×g using Amicon Ultra centrifugation filters (100 k MWCO). The concentrated formulations were characterized for size, polydispersity, and particle concentration using Zetasizer Ultra (Malvern Panalytical) and for mRNA encapsulation efficiency using Quant-iT RiboGreen RNA Assay Kit (ThermoFisher Scientific).
(§6) For each LNP composition, the lipid mix and mRNA solution were mixed at a 1:3 ratio by volume, respectively, on a NanoAssemblr Ignite (Precision Nanosystems) at a total flow rate of 9 mL/min. The resulting compositions were then loaded into Slide-A-Lyzer G2 dialysis cassettes (10 k MWCO) and dialyzed in 200 times sample volume of 1×PBS for 2 hours at room temperature with gentle stirring. The PBS was refreshed, and the compositions were further dialyzed for at least 14 hours at 4° C. with gentle stirring. The dialyzed compositions were then collected and concentrated by centrifugation at 3000×g using Amicon Ultra centrifugation filters (100 k MWCO). The concentrated particles were characterized for size, polydispersity, and particle concentration using Zetasizer Ultra (Malvern Panalytical) and for mRNA encapsulation efficiency using Quant-iT RiboGreen RNA Assay Kit (ThermoFisher Scientific).

[3] = LNP size and polydispersity, Zetasizer Ultra; type: physicochemical; conditions: Example 5 LNP lipid:DOPE:Plant Cholesterol:DMPE-PEG2k 35:16:46.5:2.5, FLUC/EPO 1:1 mRNA, N:P 6:1
Description: as §4, §5, §6

Balb/c mice [4] = experiment: EPO levels in plasma by EPO MSD kit after IV injection of EPO mRNA LNP; type: in vivo
Description: as §1, §2, §3

[5] = TNS (pKa) assay, apparent LNP pKa; type: physicochemical; conditions: for pKa (TNS): Example 5 LNP lipid:DOPE:Plant Cholesterol:DMPE-PEG2k 35:16:46.5:2.5, FLUC/EPO 1:1 mRNA, N:P 6:1
Description: (protocol adapted from: A Novel Amino Lipid Series for mRNA Delivery: Improved Endosomal Escape and Sustained Pharmacology and Safety in Non-human Primates, Sabnis, Staci et al., Molecular Therapy, Volume 26, Issue 6, 1509-1519) 20 buffers (10 mM sodium phosphate, 10 mM sodium borate, 10 mM sodium citrate, and 150 mM sodium chloride, in Distilled Water) of unique pH values ranging from 3.0-12.0 were prepared using 1M sodium hydroxide and 1M hydrochloric acid. 3.25 uL of LNPs (0.04 mg/mL mRNA, in PBS) were incubated with 2 μL of TNS reagent (0.3 mM, in DMSO) and 90 μL of buffer for each pH value (described above) in a 96-well black-walled plate. Each pH condition was performed in triplicate wells. The TNS fluorescence was measured using a Biotek Cytation Plate reader at excitation/emission wavelengths of 321/445 nm. The fluorescence values were then plotted and fit using a 4-parameter sigmoid curve. From the fit, the pH value yielding the half-maximal fluorescence was calculated and reported as the apparent LNP pKa value.
For pKa measurement, a […] assay was conducted according to those described in Sabnis et al., Molecular Therapy, 26(6):1509-19), which is incorporated herein by reference in its entirety. Briefly, 20 buffers (10 mM sodium phosphate, 10 mM sodium borate, 10 mM sodium citrate, and 150 mM sodium chloride, in distilled Water) of unique pH values ranging from 3.0-12.0 were prepared using 1M sodium hydroxide and 1M hydrochloric acid. 3.25 μL of a LNP composition (0.04 mg/mL mRNA, in PBS) was incubated with 2 μL of TNS reagent (0.3 mM, in DMSO) and 90 μL of buffer for each pH value (described above) in a 96-well black-walled plate. Each pH condition was performed in triplicate wells. The TNS fluorescence was measured using a Biotek Cytation Plate reader at excitation/emission wavelengths of 321/445 nm. The fluorescence values were then plotted and fit using a 4-parameter sigmoid curve. From the fit, the pH value yielding the half-maximal fluorescence was calculated and reported as the apparent LNP pKa value.

[6] = Example 5 LNP (DOPE 35:16:46.5:2.5), 5 μg FLUC + 5 μg EPO
[7] = LNP lipid:DOPE:Plant Chol.:DMPE-PEG2k 35:16:46.5:2.5 (Table 1)
[8] = LNP lipid:DSPC:Plant Chol.:DMPE-PEG2k 50:10:38.5:1.5

Structure (SMILES) | Bioluminescence (IV) Liver (Balb/c mice [1]) | Bioluminescence (IV) Lung (Balb/c mice [1]) | Bioluminescence (IV) Spleen (Balb/c mice [1]) | Bioluminescence (IV) Whole Body (Balb/c mice [1]) | Spleen: Liver Ratio (Balb/c mice [1]) | % EE [2] [%] | PDI [3] | Size (nm) [3] [nm] | hEPO (Balb/c mice [4]; [6]) | pKa (TNS) [5] | Bioluminescence Liver (Balb/c mice [1]; [7]) | Bioluminescence Lung (Balb/c mice [1]; [7]) | Bioluminescence Spleen (Balb/c mice [1]; [7]) | Bioluminescence Liver (Balb/c mice [1]; [8]) | Bioluminescence Lung (Balb/c mice [1]; [8]) | Bioluminescence Spleen (Balb/c mice [1]; [8]) | pKa ([5]; LNP ionizable lipid:DOPE:Plant Chol.:DMPE-PEG2k 35:16:46.5:2.5 (Table 1)) | pKa ([5]; LNP ionizable lipid:DSPC:Plant Chol.:DMPE-PEG2k 50:10:38.5:1.5) | hEPO (Balb/c mice [4]; LNP lipid:DOPE:Plant Chol.:DMPE-PEG2k 35:16:46.5:2.5 (Table 1), 5 ug Fluc+5 ug EPO mRNA) | hEPO (Balb/c mice [4]; LNP lipid:DSPC:Plant Chol.:DMPE-PEG2k 50:10:38.5:1.5, 5 ug Fluc+5 ug EPO mRNA)
CCCCCCCCC(CCCCCCCC)OC(=O)CCCCCCCN(CCCCCCCOC(=O)C(CCCCCCCC)CCCCCCCC)CCNC(=O)CCC(=O)NCCN(CCCCCCCOC(=O)C(CCCCCCCC)CCCCCCCC)CCCCCCCC(=O)OC(CCCCCCCC)CCCCCCCC [Compound 2323, 7-[2-[[4-[2-[7-(2-octyldecanoyloxy)heptyl-[8-(1-octylnonoxy)-8-oxo-octyl]amino]ethylamino]-4-oxo-butanoyl]amino]ethyl-[8-(1-octylnonoxy)-8-oxo-octyl]amino]heptyl 2-octyldecanoate] | 3.2E+07 | 7.7E+03 | 8.7E+05 | 2.1E+08 | 0.027 | 90.7 | 0.14 | 91.0 | 3.1E+06 |  |  |  |  |  |  |  |  |  |  | 
CCCCCCCCCCCOC(=O)CCCCCN(CCCCCCCC(=O)OC(CCCCCCCC)CCCCCCCC)CCNC(=O)CCCC(=O)NCCN(CCCCCCCC(=O)OC(CCCCCCCC)CCCCCCCC)CCCCCC(=O)OCCCCCCCCCCC [Compound 2273, 1-octylnonyl 8-[2-[[5-[2-[[8-(1-octylnonoxy)-8-oxo-octyl]-(6-oxo-6-undecoxy-hexyl)amino]ethylamino]-5-oxo-pentanoyl]amino]ethyl-(6-oxo-6-undecoxyhexyl)amino]octanoate] | 7.6E+06 | 1.0E+04 | 5.7E+05 | 4.2E+07 | 0.080 |  |  |  | 8.5E+05 | 6.57 |  |  |  |  |  |  |  |  |  | 
CCCCCCCCCCCOC(=O)CCCCCN(CCCCCCCC(=O)OC(CCCCCCCC)CCCCCCCC)CCNC(=O)CCC(=O)NCCN(CCCCCCCC(=O)OC(CCCCCCCC)CCCCCCCC)CCCCCC(=O)OCCCCCCCCCCC [Compound 2221, 1-octylnonyl 8-[2-[[4-[2-[[8-(1-octylnonoxy)-8-oxo-octyl]-(6-oxo-6-undecoxy-hexyl)amino]ethylamino]-4-oxo-butanoyl]amino]ethyl-(6-oxo-6-undecoxy-hexyl)amino]octanoate] | 3.0E+06 | 1.9E+03 | 2.7E+05 | 2.2E+07 | 0.082 |  |  |  | 4.7E+05 | 6.36 | 3.05E+06 | 1.88E+03 | 2.68E+05 | 2.94E+06 | 5.09E+03 | 1.23E+06 | 6.36 | 6.29 | 4.71E+05 | 4.46E+05
